# What was measured:
# [1] = test system: LPS-induced TNF-α production; experiment: In vivo rodent assay, LPS-induced TNF-α production; details: Mus musculus; BALB/cJ female mice, oral 10 mg/kg, LPS 1 mg/kg i.p. 30 min after dosing, serum TNF-α 1 h later
# Procedure: Mice (BALB/cJ females, Jackson Laboratories) were fasted for 30 min. prior to oral dosing with 5-10 mL/kg of a test compound at 5-50 mg/kg. Thirty minutes after dosing, the animals were injected intraperitoneally with LPS at 1 mg/kg and returned to their cages for 1 h. Animals were anesthetized by CO2, exsanguinated by cardiac puncture and whole blood collected (0.1-0.7 mL). The blood was allowed to clot and serum was transferred to a centrifuge tube. This sample was centrifuged, and serum was collected, aliquoted, and frozen at −80° C. Samples were tested by commercial ELISA's for TNF-α (Endogen for mouse TNF-α). The % inhibition of the test compounds was calculated by the following formula: % inhibition=[1-(sample-BKG)/(CTRL-BKG)]×100.
# [2] = test system: TNF-α; experiment: PBMC whole cell assay (LPS/PBMC, TNF-α ELISA); type: cell-based; details: human PBMC, LPS stimulation overnight
# Procedure: Representative compounds of the present invention were tested in an in vitro whole cell assay using peripheral blood mononuclear cells (“PBMC's”) which were obtained from human blood as follows. Freshly obtained venous blood was anticoagulated with heparin, diluted with an equal volume of phosphate buffered saline (“PBS”) and placed in a sterile tube or other container. Aliquots (30 mL) of this mixture were transferred to centrifuge tubes which were underlaid with Ficoll-Hypaque (15 mL). The prepared tubes were centrifuged at 400×g without braking for 30 min at room temperature. Approximately ½ to ⅔ of the platelet layer above the mononuclear cell band was removed with a pipette. The majority of the mononuclear cell layer was carefully removed using a pipette and these PBMC's were diluted with PBS and spun at 600×g for 15 min. The resulting PBMC's were washed with another portion of PBS and spun at 400×g for 10 min at room temperature. The recovered pellets were diluted in low endotoxin RPMI/1% FCS culture medium and gave a cell concentration of 0.5-2.0×10^6 PMBC/mL. A small volume of the suspension was removed for counting on a hemocytometer and the remaining preparation was centrifuged at 200×g for 15 min at room temperature. The recovered pelleted PMBC's were re-suspended in RPMI/1% FCS to a concentration of 1.67×10^6/mL.
# To run the assay, the PBMC suspension (180 μL) was transferred to duplicate wells of a 96-well flat-bottom microtiter plate and incubated for 1 h at 37° C. A solution of test compound (10 μL, prepared at 20×the desired final concentration) was added to each well and the plate was incubated for 1 h at 37° C. A solution (10 μL) of LPS in RPMI/1% FCS (200 ng/mL) was added and the wells were incubated overnight at 37° C. The supernate (100 μL) was removed from each well and diluted with RPMI/1% FCS (400 μL). The samples were analyzed for TNF-α using a commercial ELISA kit (Genzyme).
Structure (SMILES),IC50 [2],inhibition in vivo at 10 mg/kg [1]
"Nc1ccn2c(-c3ccncc3)c(-c3cccc(C(F)(F)F)c3)nc2n1 [Compound 7, 3-(4-pyridinyl)-2-[3-(trifluoromethyl)phenyl]-imidazo[1,2-a]pyrimidin-7-amine]",35 nM,99%
"COc1ccc(CNc2nccc(-c3c(-c4ccccc4)nc4nc(N)ccn34)n2)cc1 [Compound 20, 3-[[[(4-Methoxyphenyl)methyl]amino]-4-pyrimidinyl]-2-phenylimidazo[1,2-a]pyrimidin-7-amine]",14 nM,
"CS(=O)(=O)c1nccc(-c2c(-c3cccc(C(F)(F)F)c3)nc3nc(N)ccn23)n1 [Compound 18, 3-[2-(Methylsulfonyl)-4-pyrimidinyl]-2-[3-(trifluoromethyl)phenyl]imidazo[1,2-a]pyrimidin-7-amine]",520 nM,10%
"Nc1ccn2c(-c3ccncc3)c(-c3ccccc3)nc2n1 [Compound 5, 2-phenyl-3-(4-pyridinyl)-imidazo[1,2-a]pyrimidin-7-amine]",55 nM,100%
"Nc1ccn2c(-c3ccnc(NCc4ccccc4)c3)c(-c3cccc(C(F)(F)F)c3)nc2n1 [Compound 8, 3-[2-[(phenylmethyl)amino]4-pyridinyl]-2-[3-(trifluoromethyl)phenyl]-imidazo[1,2-a]pyrimidin-7-amine]",4 nM,19%
"Nc1ccn2c(-c3ccncn3)c(-c3cccc(C(F)(F)F)c3)nc2n1 [Compound 13, 3-(4-Pyrimidinyl)-2-[3-(trifluoromethyl)phenyl]imidazo[1,2-a]pyrimidin-7-amine]",278 nM,85%
"CSc1nccc(-c2c(-c3ccccc3)nc3nc(N)ccn23)n1 [Compound 15, 3-[2-(Methylthio)-4-pyrimidinyl]-2-phenylimidazo[1,2-a]pyrimidin-7-amine]",28 nM,23%
"Nc1ccn2c(-c3ccncn3)c(-c3ccccc3)nc2n1 [Compound 16, 2-Phenyl-3-(4-pyrimidinyl)imidazo[1,2-a]pyrimidin-7-amine]",304 nM,73%
"C[C@H](Nc1nccc(-c2c(-c3ccc(F)cc3)nc3nc(N)ccn23)n1)C1CCCCC1 [Compound 22, 3-[2-[[(1S)-1-Cyclohexylethyl]amino]-4-pyrimidinyl]-2-(4-fluorophenyl)imidazo[1,2-a]pyrimidin-7-amine]",1 nM,74%
"CSc1nccc(-c2c(-c3ccc(F)cc3)nc3nc(N)ccn23)n1 [Compound 10, 2-(4-Fluorophenyl)-3-[2-(methylthio)-4-pyrimidinyl]imidazo[1,2-a]pyrimidin-7-amine]",37 nM,68%
"Nc1ccn2c(-c3ccncc3)c(-c3cccc(F)c3)nc2n1 [Compound 2, 2-(3-fluorophenyl)-3-(4-pyridinyl)-imidazo[1,2-a]pyrimidin-7-amine]",55 nM,100%
"Nc1ccn2c(-c3ccnc4ccccc34)c(-c3ccc(F)cc3)nc2n1 [Compound 3, 2-(4-fluorophenyl)-3-(4-quinolinyl)-imidazo[1,2-a]pyrimidin-7-amine]",333 nM,26%

# More lines, in order of falling IC50 [2], values ahead:
IC50 [2],Structure (SMILES),inhibition in vivo at 10 mg/kg [1]
3410 nM,"CS(=O)(=O)c1nccc(-c2c(-c3ccccc3)nc3nc(N)ccn23)n1 [Compound 17, 3-[2-(Methylsulfonyl)-4-pyrimidinyl]-2-phenylimidazo [1,2-a]pyrimidin-7-amine]",
199 nM,"Nc1ccn2c(-c3ccncn3)c(-c3ccc(F)cc3)nc2n1 [Compound 24, 2-(4-Fluorophenyl)-3-(4-pyrimidinyl)imidazo[1,2-a]pyrimidin-7-amine]",91%
162 nM,"Nc1ccn2c(-c3ccncc3)c(-c3cccc(Cl)c3)nc2n1 [Compound 25, 2-(3-Chlorophenyl)-3-(4-pyridinyl)imidazo[1,2-a]pyrimidin-7-amine]",47%
90 nM,"COc1nccc(-c2c(-c3ccccc3)nc3nc(N)ccn23)n1 [Compound 23, 3-(2-Methoxy-4-pyrimidinyl)-2-phenylimidazo[1,2-a]pyrimidin-7-amine]",87%
49 nM,"Nc1ccn2c(-c3ccncc3)c(-c3ccc(F)cc3)nc2n1 [Compound 1, 2-(4-fluorophenyl)-3-(4-pyridinyl)-imidazo[1,2-a]pyrimidin-7-amine]",100%
27 nM,"CSc1nccc(-c2c(-c3cccc(C(F)(F)F)c3)nc3nc(N)ccn23)n1 [Compound 11, 3-[2-(Methylthio)-4-pyrimidinyl]-2-[3-(trifluoromethyl)phenyl]imidazo[1,2-a]pyrimidin-7-amine]",38%
21 nM,"Nc1ccn2c(-c3ccncc3)c(-c3ccc(F)c(Cl)c3)nc2n1 [Compound 4, 2-(3-chloro-4-fluorophenyl)-3-(4-pyridinyl)-imidazo[1,2-a]pyrimidin-7-amine]",100%
10 nM,"CSc1nccc(-c2c(-c3cccc(F)c3)nc3nc(N)ccn23)n1 [Compound 12, 2-(3-Fluorophenyl)-3-[2-(methylthio)-4-pyrimidinyl]imidazo[1,2-a]pyrimidin-7-amine]",51%
8 nM,"Nc1ccn2c(-c3ccnc(N4CCCCC4)n3)c(-c3ccccc3)nc2n1 [Compound 14, 2-Phenyl-3-[2-(1-piperidinyl)-4-pyrimidinyl]imidazo[1,2-a]pyrimidin-7-amine]",63%
6 nM,"Nc1ccn2c(-c3ccnc(NCc4ccccc4)c3)c(-c3ccc(F)cc3)nc2n1 [Compound 6, 2-(4-fluorophenyl)-3-[2-[(phenylmethyl)amino]4-pyridinyl]-imidazo[1,2-a]pyrimidin-7-amine]",42%
0.5 nM,"C[C@H](Nc1nccc(-c2c(-c3cccc(C(F)(F)F)c3)nc3nc(N)ccn23)n1)c1ccccc1 [Compound 9, 3-[2-[[(1S)-1-Phenylethyl]amino]4-pyrimidinyl]-2-[3-(trifluoromethyl)phenyl]imidazo[1,2-a]pyrimidin-7-amine]",97%
0.4 nM,"C[C@H](Nc1nccc(-c2c(-c3ccccc3)nc3nc(N)ccn23)n1)c1ccccc1 [Compound 19, 2-Phenyl-3-[2-[[(1S)-1-phenylethyl]amino]4-pyrimidinyl]imidazo[1,2-a]pyrimidin-7-amine]",100%

# From patent publication US6610697B1, “Substituted 2-aryl-3-(heteroaryl)-imidazo[1,2-a]pyrimidines, and related pharmaceutical compositions and methods” (Ortho-McNeil Pharmaceutical, Inc., priority 1999, dated 2003)
